{
  "source": "patent US8129521B2",
  "about": "“One pot synthesis of tetrazole derivatives of rapamycin” (Abbott Laboratories, priority 2005, dated 2012)",
  "type_in_all_cases": "physicochemical",
  "key": {"[1]": {"test": "Stability of zotarolimus on storage (potency over time, no anti-oxidant)", "protocol": "Several lots of zotarolimus prepared by the one-pot methods lost significant potency over time. The potency loss was higher at increased temperature, but there was no apparent change in the impurity profile. Table 2 presents the potency of a lot of zotarolimus at various time intervals and temperature conditions. […] This loss was exacerbated in a sealed container when held at 40° C.—from 96.0% to 37.4% over just two months."}, "[2]": {"test": "Equilibration studies of pyran and oxepane forms of zotarolimus without buffer (acetonitrile/water, C-18 HPLC)", "details": "non-buffered, 66% acetonitrile in water", "protocol": "Studies were also carried out under non-buffered conditions in a solvent mixture of acetonitrile/water. Multiple injections of zotarolimus were performed on a C-18 Altima column (Alltech Associates, Inc.; Deerfield, Ill.) using 66% acetonitrile in water in a non-buffered media. The pyran and oxepane forms were collected. These forms were re-injected on C-18 column to study the equilibrium ratio at various intervals. […] These observations confirmed that zotarolimus exists in an equilibrium mixture of […] pyran (1) vs. oxepane (2) forms."}, "[3]": {"test": "Zotarolimus stability with various concentrations of BHT", "protocol": "A stability study was carried out to prevent this oxidation using phenolic anti-oxidants and identified BHT as a suitable compound. Tables 3 and 4 present stability data using BHT at various concentrations (% represented w/w) and temperatures."}},
  "data": [
    {"molecule": "CO[C@H]1C[C@@H]2CC[C@@H](C)[C@@](O)(O2)C(=O)C(=O)N2CCCC[C@H]2C(=O)O[C@H]([C@H](C)C[C@@H]2CC[C@H](n3cnnn3)[C@H](OC)C2)CC(=O)[C@H](C)/C=C(\\C)[C@@H](O)[C@@H](OC)C(=O)[C@H](C)C[C@H](C)/C=C/C=C/C=C/1C", "note": "[zotarolimus, 40-epi-(1-tetrazolyl)-rapamycin]", "values": [
      {"measurement": "potency", "setting": "[1]; storage 5° C. (sealed), 1 month after synthesis", "value": 95.0, "unit": "%"},
      {"measurement": "potency", "setting": "[1]; storage 5° C. (sealed), 2 months after synthesis", "value": 95.4, "unit": "%"},
      {"measurement": "potency", "setting": "[1]; storage 5° C. (sealed), 2 weeks after synthesis", "value": 98.2, "unit": "%"},
      {"measurement": "potency", "setting": "[1]; storage 5° C. (sealed), 3 months after synthesis", "value": 95.1, "unit": "%"},
      {"measurement": "potency", "setting": "[1]; storage 5° C. (sealed), Initial", "value": 95.7, "unit": "%"},
      {"measurement": "potency", "setting": "[1]; storage 25° C. (sealed), 1 month after synthesis", "value": 88.8, "unit": "%"},
      {"measurement": "potency", "setting": "[1]; storage 25° C. (sealed), 2 months after synthesis", "value": 81.6, "unit": "%"},
      {"measurement": "potency", "setting": "[1]; storage 25° C. (sealed), 2 weeks after synthesis", "value": 95.7, "unit": "%"},
      {"measurement": "potency", "setting": "[1]; storage 25° C. (sealed), 3 months after synthesis", "value": 69.8, "unit": "%"},
      {"measurement": "potency", "setting": "[1]; storage 25° C. (sealed), Initial", "value": 95.1, "unit": "%"},
      {"measurement": "potency", "setting": "[1]; storage 25° C. (unsealed), 1 month after synthesis", "value": 91.6, "unit": "%"},
      {"measurement": "potency", "setting": "[1]; storage 25° C. (unsealed), 2 months after synthesis", "value": 87.1, "unit": "%"},
      {"measurement": "potency", "setting": "[1]; storage 25° C. (unsealed), 2 weeks after synthesis", "value": 98.0, "unit": "%"},
      {"measurement": "potency", "setting": "[1]; storage 25° C. (unsealed), 3 months after synthesis", "value": 75.5, "unit": "%"},
      {"measurement": "potency", "setting": "[1]; storage 25° C. (unsealed), Initial", "value": 95.5, "unit": "%"},
      {"measurement": "potency", "setting": "[1]; storage 40° C. (sealed), 1 month after synthesis", "value": 61.9, "unit": "%"},
      {"measurement": "potency", "setting": "[1]; storage 40° C. (sealed), 2 months after synthesis", "value": 37.4, "unit": "%"},
      {"measurement": "potency", "setting": "[1]; storage 40° C. (sealed), 2 weeks after synthesis", "value": 81.1, "unit": "%"},
      {"measurement": "potency", "setting": "[1]; storage 40° C. (sealed), Initial", "value": 96, "unit": "%"},
      {"measurement": "stability at room temperature", "setting": "[1]; without anti-oxidant", "value": "unstable at room temperature"},
      {"measurement": "time to complete equilibration between two isomers", "setting": "[2]", "value": "7 to 8", "unit": "h"},
      {"measurement": "potency", "setting": "[3]; 4° C., BHT 0.0%, 0 weeks", "value": 97.2, "unit": "%"},
      {"measurement": "potency", "setting": "[3]; 4° C., BHT 0.0%, 2 weeks", "value": 95.2, "unit": "%"},
      {"measurement": "potency", "setting": "[3]; 4° C., BHT 0.0%, 4 weeks", "value": 96.4, "unit": "%"},
      {"measurement": "potency", "setting": "[3]; 4° C., BHT 0.0%, 6 weeks", "value": 96.6, "unit": "%"},
      {"measurement": "potency", "setting": "[3]; 4° C., BHT 0.0%, 8 weeks", "value": 97.5, "unit": "%"},
      {"measurement": "potency", "setting": "[3]; 4° C., BHT 0.0%, 12 weeks", "value": 95.9, "unit": "%"},
      {"measurement": "potency", "setting": "[3]; 4° C., BHT 0.1%, 0 weeks", "value": 96.7, "unit": "%"},
      {"measurement": "potency", "setting": "[3]; 4° C., BHT 0.1%, 2 weeks", "value": 96.7, "unit": "%"},
      {"measurement": "potency", "setting": "[3]; 4° C., BHT 0.1%, 4 weeks", "value": 97.3, "unit": "%"},
      {"measurement": "potency", "setting": "[3]; 4° C., BHT 0.1%, 6 weeks", "value": 96.8, "unit": "%"},
      {"measurement": "potency", "setting": "[3]; 4° C., BHT 0.1%, 8 weeks", "value": 96.9, "unit": "%"},
      {"measurement": "potency", "setting": "[3]; 4° C., BHT 0.1%, 12 weeks", "value": 96.8, "unit": "%"},
      {"measurement": "potency", "setting": "[3]; 4° C., BHT 0.2%, 0 weeks", "value": 96.3, "unit": "%"},
      {"measurement": "potency", "setting": "[3]; 4° C., BHT 0.2%, 2 weeks", "value": 96.7, "unit": "%"},
      {"measurement": "potency", "setting": "[3]; 4° C., BHT 0.2%, 4 weeks", "value": 97.5, "unit": "%"},
      {"measurement": "potency", "setting": "[3]; 4° C., BHT 0.2%, 6 weeks", "value": 96.9, "unit": "%"},
      {"measurement": "potency", "setting": "[3]; 4° C., BHT 0.2%, 8 weeks", "value": 96.9, "unit": "%"},
      {"measurement": "potency", "setting": "[3]; 4° C., BHT 0.2%, 12 weeks", "value": 96.8, "unit": "%"},
      {"measurement": "potency", "setting": "[3]; 4° C., BHT 0.5%, 0 weeks", "value": 96.5, "unit": "%"},
      {"measurement": "potency", "setting": "[3]; 4° C., BHT 0.5%, 2 weeks", "value": 96.5, "unit": "%"},
      {"measurement": "potency", "setting": "[3]; 4° C., BHT 0.5%, 4 weeks", "value": 96.2, "unit": "%"},
      {"measurement": "potency", "setting": "[3]; 4° C., BHT 0.5%, 6 weeks", "value": 95.7, "unit": "%"},
      {"measurement": "potency", "setting": "[3]; 4° C., BHT 0.5%, 8 weeks", "value": 96.9, "unit": "%"},
      {"measurement": "potency", "setting": "[3]; 4° C., BHT 1.0%, 0 weeks", "value": 95.9, "unit": "%"},
      {"measurement": "potency", "setting": "[3]; 4° C., BHT 1.0%, 2 weeks", "value": 96.3, "unit": "%"},
      {"measurement": "potency", "setting": "[3]; 4° C., BHT 1.0%, 4 weeks", "value": 96.6, "unit": "%"},
      {"measurement": "potency", "setting": "[3]; 4° C., BHT 1.0%, 6 weeks", "value": 96.1, "unit": "%"},
      {"measurement": "potency", "setting": "[3]; 4° C., BHT 1.0%, 8 weeks", "value": 96.9, "unit": "%"},
      {"measurement": "potency", "setting": "[3]; 4° C., BHT 1.0%, 12 weeks", "value": 95.5, "unit": "%"},
      {"measurement": "potency", "setting": "[3]; 40° C., BHT (w/w) 0.1%, 0 weeks", "value": 96.7, "unit": "%"},
      {"measurement": "potency", "setting": "[3]; 40° C., BHT (w/w) 0.1%, 2 weeks", "value": 96.5, "unit": "%"},
      {"measurement": "potency", "setting": "[3]; 40° C., BHT (w/w) 0.1%, 4 weeks", "value": 96.9, "unit": "%"},
      {"measurement": "potency", "setting": "[3]; 40° C., BHT (w/w) 0.1%, 6 weeks", "value": 96.1, "unit": "%"},
      {"measurement": "potency", "setting": "[3]; 40° C., BHT (w/w) 0.1%, 8 weeks", "value": 96.2, "unit": "%"},
      {"measurement": "potency", "setting": "[3]; 40° C., BHT (w/w) 0.1%, 12 weeks", "value": 95.6, "unit": "%"},
      {"measurement": "potency", "setting": "[3]; 40° C., BHT (w/w) 0.2%, 0 weeks", "value": 96.3, "unit": "%"},
      {"measurement": "potency", "setting": "[3]; 40° C., BHT (w/w) 0.2%, 2 weeks", "value": 96.6, "unit": "%"},
      {"measurement": "potency", "setting": "[3]; 40° C., BHT (w/w) 0.2%, 4 weeks", "value": 97.2, "unit": "%"},
      {"measurement": "potency", "setting": "[3]; 40° C., BHT (w/w) 0.2%, 6 weeks", "value": 97.1, "unit": "%"},
      {"measurement": "potency", "setting": "[3]; 40° C., BHT (w/w) 0.2%, 8 weeks", "value": 97.0, "unit": "%"},
      {"measurement": "potency", "setting": "[3]; 40° C., BHT (w/w) 0.5%, 0 weeks", "value": 96.5, "unit": "%"},
      {"measurement": "potency", "setting": "[3]; 40° C., BHT (w/w) 0.5%, 2 weeks", "value": 96.1, "unit": "%"},
      {"measurement": "potency", "setting": "[3]; 40° C., BHT (w/w) 0.5%, 4 weeks", "value": 96.4, "unit": "%"},
      {"measurement": "potency", "setting": "[3]; 40° C., BHT (w/w) 0.5%, 6 weeks", "value": 95.7, "unit": "%"},
      {"measurement": "potency", "setting": "[3]; 40° C., BHT (w/w) 0.5%, 8 weeks", "value": 96.1, "unit": "%"},
      {"measurement": "potency", "setting": "[3]; 40° C., BHT (w/w) 0.5%, 12 weeks", "value": 95.9, "unit": "%"},
      {"measurement": "potency", "setting": "[3]; 40° C., BHT (w/w) 1.0%, 0 weeks", "value": 95.9, "unit": "%"},
      {"measurement": "potency", "setting": "[3]; 40° C., BHT (w/w) 1.0%, 2 weeks", "value": 95.4, "unit": "%"},
      {"measurement": "potency", "setting": "[3]; 40° C., BHT (w/w) 1.0%, 4 weeks", "value": 96.4, "unit": "%"},
      {"measurement": "potency", "setting": "[3]; 40° C., BHT (w/w) 1.0%, 6 weeks", "value": 95.6, "unit": "%"},
      {"measurement": "potency", "setting": "[3]; 40° C., BHT (w/w) 1.0%, 8 weeks", "value": 96.5, "unit": "%"},
      {"measurement": "potency", "setting": "[3]; 40° C., BHT (w/w) 1.0%, 12 weeks", "value": 95.8, "unit": "%"}
    ]}
  ]
}
